Key:
[1] = target: T1, Separin (Homo sapiens, UniProt Q14674); assay: Inhibition of epitope-tagged separase (unknown origin) using Rad21-MCA as substrate preincubated for 1 hr followed by substrate addition measured after 3 hrs by fluorescence assay
[2] = target: T1, Separin; assay: Inhibition of human ZZ TEV4-tagged separase expressed in human 293T cells using (Rad21)2-Rh110 as substrate preincubated for 1 hr followed by substrate addition measured after 3 hrs by fluorescence assay

T1 sequence (Q14674 whole entry): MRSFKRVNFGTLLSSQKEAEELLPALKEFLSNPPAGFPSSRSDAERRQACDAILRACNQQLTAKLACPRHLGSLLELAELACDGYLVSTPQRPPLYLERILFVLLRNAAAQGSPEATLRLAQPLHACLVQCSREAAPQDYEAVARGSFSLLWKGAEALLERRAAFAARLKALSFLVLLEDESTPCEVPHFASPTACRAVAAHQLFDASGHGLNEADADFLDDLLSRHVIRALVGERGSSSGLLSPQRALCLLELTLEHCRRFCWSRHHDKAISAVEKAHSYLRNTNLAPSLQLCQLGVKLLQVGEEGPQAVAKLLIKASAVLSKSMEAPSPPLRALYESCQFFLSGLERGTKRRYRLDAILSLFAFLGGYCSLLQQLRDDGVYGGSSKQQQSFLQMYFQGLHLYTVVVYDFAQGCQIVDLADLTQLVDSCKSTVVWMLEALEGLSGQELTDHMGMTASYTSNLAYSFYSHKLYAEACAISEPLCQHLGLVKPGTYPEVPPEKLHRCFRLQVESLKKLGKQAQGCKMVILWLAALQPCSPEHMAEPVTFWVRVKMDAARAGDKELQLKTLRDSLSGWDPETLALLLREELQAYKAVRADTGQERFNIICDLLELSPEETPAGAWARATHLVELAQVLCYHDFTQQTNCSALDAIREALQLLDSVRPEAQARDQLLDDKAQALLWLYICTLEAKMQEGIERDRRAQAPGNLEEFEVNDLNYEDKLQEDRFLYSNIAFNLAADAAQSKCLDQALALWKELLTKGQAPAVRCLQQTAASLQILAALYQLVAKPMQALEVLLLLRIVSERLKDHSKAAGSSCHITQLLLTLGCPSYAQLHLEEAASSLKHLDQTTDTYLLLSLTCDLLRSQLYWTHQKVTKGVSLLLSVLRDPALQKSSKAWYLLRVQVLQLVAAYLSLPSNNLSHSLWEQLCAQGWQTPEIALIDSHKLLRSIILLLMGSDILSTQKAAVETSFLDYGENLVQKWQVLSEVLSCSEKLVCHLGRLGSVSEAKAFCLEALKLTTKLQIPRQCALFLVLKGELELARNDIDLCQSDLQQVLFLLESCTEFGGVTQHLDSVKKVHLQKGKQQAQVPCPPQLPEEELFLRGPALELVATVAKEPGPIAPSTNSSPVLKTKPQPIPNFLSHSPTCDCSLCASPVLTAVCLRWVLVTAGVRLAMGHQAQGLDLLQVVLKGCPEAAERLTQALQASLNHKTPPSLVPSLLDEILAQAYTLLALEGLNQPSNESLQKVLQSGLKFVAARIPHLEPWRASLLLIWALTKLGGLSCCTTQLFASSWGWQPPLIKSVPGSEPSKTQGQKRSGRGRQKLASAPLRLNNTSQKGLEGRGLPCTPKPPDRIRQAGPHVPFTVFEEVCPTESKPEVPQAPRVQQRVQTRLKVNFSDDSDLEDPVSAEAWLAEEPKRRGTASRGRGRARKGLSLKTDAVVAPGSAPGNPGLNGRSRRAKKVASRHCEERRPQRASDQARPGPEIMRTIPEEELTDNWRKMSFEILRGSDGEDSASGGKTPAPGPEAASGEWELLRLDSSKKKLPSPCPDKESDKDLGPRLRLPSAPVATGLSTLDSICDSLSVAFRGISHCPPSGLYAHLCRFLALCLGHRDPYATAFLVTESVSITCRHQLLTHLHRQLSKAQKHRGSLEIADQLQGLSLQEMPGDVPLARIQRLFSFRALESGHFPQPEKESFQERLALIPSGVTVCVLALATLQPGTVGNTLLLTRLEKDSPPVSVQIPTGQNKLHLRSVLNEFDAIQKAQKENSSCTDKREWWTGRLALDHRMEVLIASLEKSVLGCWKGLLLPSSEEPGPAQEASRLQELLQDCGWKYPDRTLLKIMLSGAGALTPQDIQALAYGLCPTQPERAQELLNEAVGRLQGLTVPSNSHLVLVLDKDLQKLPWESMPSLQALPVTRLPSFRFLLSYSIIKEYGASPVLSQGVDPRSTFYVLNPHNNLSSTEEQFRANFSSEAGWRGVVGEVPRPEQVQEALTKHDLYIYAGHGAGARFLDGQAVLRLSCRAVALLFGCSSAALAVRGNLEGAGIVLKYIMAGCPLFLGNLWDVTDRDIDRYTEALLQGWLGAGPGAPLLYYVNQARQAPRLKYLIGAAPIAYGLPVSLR

| SMILES | IC50 [1] [µM] | IC50 [2] [µM] |
| --- | --- | --- |
| CC1(C)[N+]([O-])=c2ccc(F)cc2=[N+]1[O-] | > 100 | – |
| CC1(C)[N+]([O-])=c2ccc(-c3ccccc3)cc2=[N+]1[O-] | > 100 | – |
| O=[N+]([O-])c1ccc2nonc2c1 | > 100 | – |
| CC1(C)[N+]([O-])=c2ccc(C(F)(F)F)cc2=[N+]1[O-] | > 100 | – |
| COC(=O)c1ccc2c(c1)[n+]([O-])c(C)c(C)[n+]2[O-] | > 100 | – |
| O=[N+]([O-])c1ccc2c(c1)=[N+]([O-])C1(CCCCC1)[N+]=2[O-] | 16.2 | – |
| CCOc1cc2c(cc1F)=[N+]([O-])C(C)(C)[N+]=2[O-] | > 100 | – |
| CCCCNc1ccc2c(c1)=[N+]([O-])C(C)(C)[N+]=2[O-] | > 100 | – |
| CC1(C)[N+]([O-])=c2ccc(C(=O)O)cc2=[N+]1[O-] | > 100 | – |
| CC1(C)[N+]([O-])=c2ccc([N+](=O)[O-])cc2=[N+]1[O-] | 17.8 | 15 |
| CC1(C)[N+]([O-])=c2ccc(Br)cc2=[N+]1[O-] | > 100 | – |
| CCOc1ccc2c(c1)=[N+]([O-])C(C)(C)[N+]=2[O-] | > 100 | – |
| COC(=O)c1ccc2c(c1)=[N+]([O-])C(C)(C)[N+]=2[O-] | > 100 | – |

From ChEMBL document CHEMBL4431356, “Synthesis and activity of benzimidazole-1,3-dioxide inhibitors of separase” (Bioorg Med Chem Lett, 2016)
